Drawing on ChEMBL document CHEMBL3856204, “Chiral 6-aryl-furo[2,3-d]pyrimidin-4-amines as EGFR inhibitors” (Eur J Med Chem, 2016), this text covers inhibition for three compounds.

Structures are written as SMILES.

Test [1] concerns the target Fibroblast growth factor receptor 1 (Homo sapiens) (UniProt P11362). Nature of the test: Inhibition of His tagged recombinant human FGFR1 cytoplasmic domain (308 to 731 residues) expressed in baculovirus at 500 nM by Z'-LYTE assay.
Test [2] deals with T1, Inhibitor of nuclear factor kappa-B kinase subunit beta (Homo sapiens) (UniProt O14920).
T1 sequence (whole entry): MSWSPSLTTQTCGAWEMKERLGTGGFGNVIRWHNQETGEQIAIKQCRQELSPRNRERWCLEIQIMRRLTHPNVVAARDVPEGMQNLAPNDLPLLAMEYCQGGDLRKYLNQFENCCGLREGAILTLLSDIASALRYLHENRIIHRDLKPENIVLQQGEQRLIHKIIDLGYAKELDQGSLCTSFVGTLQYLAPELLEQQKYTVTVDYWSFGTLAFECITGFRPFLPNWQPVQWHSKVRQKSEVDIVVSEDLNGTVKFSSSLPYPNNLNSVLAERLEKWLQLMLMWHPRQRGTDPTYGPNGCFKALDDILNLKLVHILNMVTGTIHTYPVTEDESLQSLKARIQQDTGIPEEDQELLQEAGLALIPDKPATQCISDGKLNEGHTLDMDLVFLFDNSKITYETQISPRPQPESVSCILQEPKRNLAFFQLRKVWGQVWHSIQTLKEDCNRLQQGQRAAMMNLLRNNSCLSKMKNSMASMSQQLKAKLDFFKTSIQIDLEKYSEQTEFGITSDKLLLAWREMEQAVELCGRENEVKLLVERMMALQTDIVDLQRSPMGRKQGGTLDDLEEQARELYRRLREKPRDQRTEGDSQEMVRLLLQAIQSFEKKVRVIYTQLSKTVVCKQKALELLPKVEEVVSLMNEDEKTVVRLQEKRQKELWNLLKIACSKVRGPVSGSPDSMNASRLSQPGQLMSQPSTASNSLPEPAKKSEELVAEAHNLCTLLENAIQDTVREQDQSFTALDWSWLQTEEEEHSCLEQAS
Nature of the test: Inhibition of GST tagged recombinant full length human IKK beta expressed in baculovirus at 500 nM by Z'-LYTE assay.

The target in test [3] is Platelet-derived growth factor receptor beta (Homo sapiens) (UniProt P09619). Description: Inhibition of His tagged recombinant human PDGFRB cytoplasmic domain (558 to 1106 residues) expressed in baculovirus at 500 nM by Z'-LYTE assay.
Sequence of Platelet-derived growth factor receptor beta (Homo sapiens) (P09619 whole entry, the tested form may be a part): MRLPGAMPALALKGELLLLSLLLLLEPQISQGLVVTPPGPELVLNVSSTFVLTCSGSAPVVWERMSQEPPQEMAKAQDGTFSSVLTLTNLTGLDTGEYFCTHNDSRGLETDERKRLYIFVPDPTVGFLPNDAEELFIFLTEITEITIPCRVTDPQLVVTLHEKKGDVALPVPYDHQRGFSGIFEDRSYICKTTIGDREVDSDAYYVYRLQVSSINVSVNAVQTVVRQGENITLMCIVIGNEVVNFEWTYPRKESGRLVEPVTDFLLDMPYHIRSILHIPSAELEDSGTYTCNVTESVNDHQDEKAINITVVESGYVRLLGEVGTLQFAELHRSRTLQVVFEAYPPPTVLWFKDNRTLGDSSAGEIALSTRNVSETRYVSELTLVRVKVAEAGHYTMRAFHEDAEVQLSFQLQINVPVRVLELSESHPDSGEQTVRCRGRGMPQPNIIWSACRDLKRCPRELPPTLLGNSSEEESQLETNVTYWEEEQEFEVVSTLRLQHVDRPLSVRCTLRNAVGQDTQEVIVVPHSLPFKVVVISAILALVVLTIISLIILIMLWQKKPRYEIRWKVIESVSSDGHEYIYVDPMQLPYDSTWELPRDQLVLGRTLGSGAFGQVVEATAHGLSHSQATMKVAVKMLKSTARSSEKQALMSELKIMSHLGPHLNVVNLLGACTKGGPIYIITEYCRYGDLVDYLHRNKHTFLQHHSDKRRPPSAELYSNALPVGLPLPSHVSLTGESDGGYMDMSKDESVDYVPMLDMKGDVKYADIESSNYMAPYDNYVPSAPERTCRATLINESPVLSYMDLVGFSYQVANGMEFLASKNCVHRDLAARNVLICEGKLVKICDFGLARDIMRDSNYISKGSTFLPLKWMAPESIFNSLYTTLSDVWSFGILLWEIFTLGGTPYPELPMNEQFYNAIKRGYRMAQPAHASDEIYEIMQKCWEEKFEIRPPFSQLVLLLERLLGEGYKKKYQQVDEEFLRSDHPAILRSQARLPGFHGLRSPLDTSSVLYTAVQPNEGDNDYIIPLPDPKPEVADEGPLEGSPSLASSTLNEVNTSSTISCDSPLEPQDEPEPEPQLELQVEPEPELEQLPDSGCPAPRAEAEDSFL
Test [4] has as its target Aurora kinase B (Homo sapiens) (UniProt Q96GD4). Description: Inhibition of His tagged recombinant full length human Aurora B expressed in baculovirus at 500 nM by Z'-LYTE assay.
The target in test [5] is Tyrosine-protein kinase Yes (Homo sapiens) (UniProt P07947). Nature of the test: Inhibition of GST tagged recombinant full length human YES1 expressed in baculovirus at 500 nM by Z'-LYTE assay.
Sequence of Tyrosine-protein kinase Yes (Homo sapiens) (P07947 2-543 limits assumed): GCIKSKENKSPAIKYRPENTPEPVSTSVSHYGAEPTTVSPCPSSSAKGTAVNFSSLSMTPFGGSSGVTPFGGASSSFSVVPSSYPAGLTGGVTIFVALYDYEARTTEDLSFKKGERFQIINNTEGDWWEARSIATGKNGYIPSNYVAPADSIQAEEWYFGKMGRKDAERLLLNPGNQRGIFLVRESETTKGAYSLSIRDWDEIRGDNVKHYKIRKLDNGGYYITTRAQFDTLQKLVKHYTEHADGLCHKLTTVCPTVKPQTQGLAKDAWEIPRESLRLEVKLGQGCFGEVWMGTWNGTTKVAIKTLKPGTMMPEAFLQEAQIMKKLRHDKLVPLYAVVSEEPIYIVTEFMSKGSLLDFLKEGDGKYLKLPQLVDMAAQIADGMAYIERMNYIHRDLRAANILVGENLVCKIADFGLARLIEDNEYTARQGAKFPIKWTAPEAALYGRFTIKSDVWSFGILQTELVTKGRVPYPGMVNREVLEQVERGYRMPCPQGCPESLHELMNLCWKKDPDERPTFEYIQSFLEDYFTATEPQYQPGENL
Test [6] concerns the target Vascular endothelial growth factor receptor 2 (Homo sapiens) (UniProt P35968). Nature of the test: Inhibition of His tagged recombinant human KDR (789 to 1356 residues) expressed in baculovirus at 500 nM by Z'-LYTE assay.
The target in test [7] is T2, Serine/threonine-protein kinase Nek1 (Homo sapiens) (UniProt Q96PY6).
T2 sequence (whole entry): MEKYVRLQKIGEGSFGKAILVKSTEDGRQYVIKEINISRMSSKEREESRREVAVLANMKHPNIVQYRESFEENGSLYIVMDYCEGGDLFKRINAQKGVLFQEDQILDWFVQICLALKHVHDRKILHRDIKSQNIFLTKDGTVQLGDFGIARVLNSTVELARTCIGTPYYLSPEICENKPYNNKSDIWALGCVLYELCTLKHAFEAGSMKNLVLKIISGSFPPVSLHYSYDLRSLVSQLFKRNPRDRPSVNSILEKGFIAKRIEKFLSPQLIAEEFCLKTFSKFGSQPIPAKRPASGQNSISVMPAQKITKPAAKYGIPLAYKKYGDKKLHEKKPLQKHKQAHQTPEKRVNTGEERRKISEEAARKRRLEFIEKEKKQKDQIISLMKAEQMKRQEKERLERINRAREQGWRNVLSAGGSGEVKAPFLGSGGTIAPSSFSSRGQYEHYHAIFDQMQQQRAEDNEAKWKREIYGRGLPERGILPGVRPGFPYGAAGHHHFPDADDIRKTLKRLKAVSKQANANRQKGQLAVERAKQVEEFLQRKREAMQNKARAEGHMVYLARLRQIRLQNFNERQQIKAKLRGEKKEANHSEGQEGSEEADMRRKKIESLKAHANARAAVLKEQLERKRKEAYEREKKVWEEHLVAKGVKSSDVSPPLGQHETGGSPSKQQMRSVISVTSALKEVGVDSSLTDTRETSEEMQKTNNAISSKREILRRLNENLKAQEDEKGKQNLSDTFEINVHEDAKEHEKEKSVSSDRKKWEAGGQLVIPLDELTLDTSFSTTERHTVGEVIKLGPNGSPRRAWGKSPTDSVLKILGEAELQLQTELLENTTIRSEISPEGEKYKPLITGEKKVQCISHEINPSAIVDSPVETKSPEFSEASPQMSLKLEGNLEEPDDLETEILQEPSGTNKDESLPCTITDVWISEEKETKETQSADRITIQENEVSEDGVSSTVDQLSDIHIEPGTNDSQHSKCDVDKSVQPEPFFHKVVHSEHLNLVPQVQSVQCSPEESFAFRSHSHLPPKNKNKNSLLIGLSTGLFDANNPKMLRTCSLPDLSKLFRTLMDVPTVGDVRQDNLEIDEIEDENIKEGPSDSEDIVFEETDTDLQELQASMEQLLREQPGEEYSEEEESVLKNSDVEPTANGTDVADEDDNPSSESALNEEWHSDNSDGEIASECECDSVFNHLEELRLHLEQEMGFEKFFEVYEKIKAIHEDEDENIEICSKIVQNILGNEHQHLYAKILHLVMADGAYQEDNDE
Nature of the test: Inhibition of GST tagged recombinant human NEK1 catalytic domain (1 to 505 residues) expressed in baculovirus at 500 nM by Z'-LYTE assay.

Test [8] deals with cAMP-dependent protein kinase catalytic subunit alpha (Homo sapiens) (UniProt P17612). Nature of the test: Inhibition of His tagged recombinant human PRKACA catalytic domain (1 to 351 residues) expressed in Escherichia coli at 500 nM by Z'-LYTE assay.
The target in test [9] is Angiopoietin-1 receptor (Homo sapiens) (UniProt Q02763). Description: Inhibition of GST tagged recombinant human Tie2 cytoplasmic domain (817 to 1101 residues) expressed in baculovirus at 500 nM by Z'-LYTE assay.
For test [10], the target named is Ephrin type-A receptor 1 (Homo sapiens) (UniProt P21709). Description: Inhibition of GST tagged recombinant human EPHA1 cytoplasmic domain (568 to 976 residues) expressed in baculovirus at 500 nM by Z'-LYTE assay.
Test [11] deals with Testis-specific serine/threonine-protein kinase 2 (Homo sapiens) (UniProt Q96PF2). Nature of the test: Inhibition of His tagged recombinant full length human STK22B expressed in baculovirus at 500 nM by Z'-LYTE assay.
Sequence of Testis-specific serine/threonine-protein kinase 2 (Homo sapiens) (Q96PF2 whole entry): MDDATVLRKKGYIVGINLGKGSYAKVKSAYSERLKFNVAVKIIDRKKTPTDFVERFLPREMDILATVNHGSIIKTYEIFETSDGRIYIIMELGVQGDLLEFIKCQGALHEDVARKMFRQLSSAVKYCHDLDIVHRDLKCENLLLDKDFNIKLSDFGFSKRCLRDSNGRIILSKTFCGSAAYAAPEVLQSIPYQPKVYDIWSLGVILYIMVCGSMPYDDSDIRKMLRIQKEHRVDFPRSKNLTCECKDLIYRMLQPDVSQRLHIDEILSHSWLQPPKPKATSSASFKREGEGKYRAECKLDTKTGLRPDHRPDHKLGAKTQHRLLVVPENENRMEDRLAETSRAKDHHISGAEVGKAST

Sequence of Aurora kinase B (Homo sapiens) (Q96GD4 whole entry): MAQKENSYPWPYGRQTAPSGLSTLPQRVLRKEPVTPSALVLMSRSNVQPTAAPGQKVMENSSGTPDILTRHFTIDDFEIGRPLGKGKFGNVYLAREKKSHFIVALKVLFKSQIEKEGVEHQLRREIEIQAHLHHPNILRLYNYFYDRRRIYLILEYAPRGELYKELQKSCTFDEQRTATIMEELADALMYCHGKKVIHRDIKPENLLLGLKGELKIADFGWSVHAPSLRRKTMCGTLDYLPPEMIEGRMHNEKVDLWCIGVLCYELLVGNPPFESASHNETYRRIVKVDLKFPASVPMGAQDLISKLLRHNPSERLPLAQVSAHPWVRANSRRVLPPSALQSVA
Sequence of Fibroblast growth factor receptor 1 (Homo sapiens) (P11362 22-822 limits assumed): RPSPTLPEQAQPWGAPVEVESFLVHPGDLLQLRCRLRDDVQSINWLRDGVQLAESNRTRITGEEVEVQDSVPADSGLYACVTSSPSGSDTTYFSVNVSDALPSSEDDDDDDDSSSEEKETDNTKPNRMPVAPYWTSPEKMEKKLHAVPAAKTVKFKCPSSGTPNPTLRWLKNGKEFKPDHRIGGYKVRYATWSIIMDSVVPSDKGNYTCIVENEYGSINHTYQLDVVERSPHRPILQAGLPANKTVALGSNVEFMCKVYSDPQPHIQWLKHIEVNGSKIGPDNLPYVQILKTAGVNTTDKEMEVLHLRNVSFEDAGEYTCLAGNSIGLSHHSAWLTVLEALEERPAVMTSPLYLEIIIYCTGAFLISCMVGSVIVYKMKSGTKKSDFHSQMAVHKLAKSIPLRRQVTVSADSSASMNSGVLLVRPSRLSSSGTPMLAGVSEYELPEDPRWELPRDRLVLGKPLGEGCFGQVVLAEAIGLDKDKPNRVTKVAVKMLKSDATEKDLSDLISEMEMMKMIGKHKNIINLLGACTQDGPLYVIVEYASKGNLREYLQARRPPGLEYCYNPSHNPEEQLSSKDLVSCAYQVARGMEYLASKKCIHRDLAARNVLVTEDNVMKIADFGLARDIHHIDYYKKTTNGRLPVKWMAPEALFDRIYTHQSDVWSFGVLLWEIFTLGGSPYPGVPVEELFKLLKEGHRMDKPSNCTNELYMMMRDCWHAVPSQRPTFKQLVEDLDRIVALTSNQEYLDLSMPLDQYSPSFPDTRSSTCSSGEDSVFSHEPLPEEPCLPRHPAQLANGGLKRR
Sequence of Vascular endothelial growth factor receptor 2 (Homo sapiens) (P35968 whole entry, the tested form may be a part): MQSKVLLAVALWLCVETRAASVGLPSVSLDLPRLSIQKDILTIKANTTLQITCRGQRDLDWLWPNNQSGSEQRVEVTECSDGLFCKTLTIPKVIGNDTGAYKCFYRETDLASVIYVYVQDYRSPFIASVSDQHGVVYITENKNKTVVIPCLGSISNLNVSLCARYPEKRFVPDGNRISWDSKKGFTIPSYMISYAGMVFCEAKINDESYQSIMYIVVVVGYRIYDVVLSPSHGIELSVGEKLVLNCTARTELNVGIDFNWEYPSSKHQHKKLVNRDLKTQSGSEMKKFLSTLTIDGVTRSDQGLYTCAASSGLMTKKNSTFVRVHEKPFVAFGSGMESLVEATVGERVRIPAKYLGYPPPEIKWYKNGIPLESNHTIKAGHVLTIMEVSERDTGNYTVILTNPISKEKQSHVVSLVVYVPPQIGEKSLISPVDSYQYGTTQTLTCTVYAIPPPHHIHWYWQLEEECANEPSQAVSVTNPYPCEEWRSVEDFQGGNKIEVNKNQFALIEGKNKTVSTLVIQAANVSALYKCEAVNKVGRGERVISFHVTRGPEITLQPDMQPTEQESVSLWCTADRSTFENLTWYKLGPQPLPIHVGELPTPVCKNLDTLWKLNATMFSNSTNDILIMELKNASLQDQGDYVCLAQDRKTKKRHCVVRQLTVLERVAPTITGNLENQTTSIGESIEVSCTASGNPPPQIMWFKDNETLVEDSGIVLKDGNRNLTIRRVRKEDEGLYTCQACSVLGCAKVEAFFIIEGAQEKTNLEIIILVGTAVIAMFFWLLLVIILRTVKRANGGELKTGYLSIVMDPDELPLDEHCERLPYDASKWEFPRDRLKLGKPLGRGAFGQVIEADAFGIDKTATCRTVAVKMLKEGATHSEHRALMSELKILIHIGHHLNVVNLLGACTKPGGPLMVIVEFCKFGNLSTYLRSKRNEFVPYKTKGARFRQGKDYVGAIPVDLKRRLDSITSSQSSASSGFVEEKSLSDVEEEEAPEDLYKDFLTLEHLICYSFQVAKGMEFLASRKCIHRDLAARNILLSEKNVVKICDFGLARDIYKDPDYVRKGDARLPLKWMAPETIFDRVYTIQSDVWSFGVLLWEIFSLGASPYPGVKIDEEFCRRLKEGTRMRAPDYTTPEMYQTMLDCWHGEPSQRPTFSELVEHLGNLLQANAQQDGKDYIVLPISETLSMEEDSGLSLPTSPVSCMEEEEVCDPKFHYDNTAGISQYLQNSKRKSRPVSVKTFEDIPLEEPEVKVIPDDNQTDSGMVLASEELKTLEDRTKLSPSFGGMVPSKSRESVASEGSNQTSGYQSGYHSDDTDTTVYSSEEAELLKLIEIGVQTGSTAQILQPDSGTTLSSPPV

On to `C#Cc1cccc(Nc2ncnc3cc(OCCOC)c(OCCOC)cc23)c1`, for which the inhibition in test [1] is -4%; in [2], -5%; in test [3], -5%; in test [4], 20 to 44%; in test [5] it was 29%; in [6] it was 70%. Also, the inhibition in test [7] was -8%; in test [8] it was -10%.

As to `C[C@@H](Nc1ncnc2oc(-c3ccc(NCCN(C)C)cc3)cc12)c1ccccc1`, the inhibition in test [1] was 6%; in [2] it was 2%; in test [9] it was 9%; in test [3] it was 10%; in test [10], 26%; in test [4], 7 to 34%. In addition, the inhibition in [5] was 51%; in test [6], 37%; in test [11], -1%; in [7], 3%; in test [8], 8%.

For `C[C@@H](Nc1ncnc2oc(-c3ccc(NCCN4CCCCC4)cc3)cc12)c1ccccc1`, the inhibition in [1] is 6%; in test [2], 3%; in [9], 8%; in test [3], 5%; in [10] it was 34%; in test [4], 13 to 31%. Moreover, the inhibition in [5] was 54%; in test [6], 44%; in test [11], 2%; in test [7], -1%; in test [8], 5%.
